Experimental data reported in ChEMBL document CHEMBL1144386, “Synthesis of O-galactosyl aldoximes as potent LacNAc-mimetic galectin-3 inhibitors” (Bioorg Med Chem Lett, 2005).

Test: Dissociation constant against galectin-3 using competitive fluorescence polarization

Compound	Kd
OCC1O[C@@H](O/N=C/c2ccc(-c3ccccc3)cc2)C(O)[C@@H](O)C1O (stereo partly specified)	6000 µM
NO[C@@H]1OC(CO)C(O)[C@H](O)C1O (stereo partly specified)	5500 µM
OCC1O[C@@H](O/N=C/c2ccncc2)C(O)[C@@H](O)C1O (stereo partly specified)	> 10000 µM
OCC1O[C@@H](O/N=C/CCl)C(O)[C@@H](O)C1O (stereo partly specified)	5300 µM
OCC1O[C@@H](O/N=C/Cc2ccccc2)C(O)[C@@H](O)C1O (stereo partly specified)	> 10000 µM
OCC1O[C@@H](O/N=C\C2C[C@H]3C=CC2C3)C(O)[C@@H](O)C1O (stereo partly specified)	4800 µM
CC(=O)Nc1ccc(/C=N/O[C@@H]2OC(CO)C(O)[C@H](O)C2O)cc1 (stereo partly specified)	4100 µM
Cc1ccccc1/C=N/O[C@@H]1O[C@@H](CO)[C@H](O)[C@H](O)[C@@H]1O	5700 µM
OCC1O[C@@H](O/N=C/c2ccco2)C(O)[C@@H](O)C1O (stereo partly specified)	6400 µM
OCC1O[C@@H](O/N=C/c2ccoc2)C(O)[C@@H](O)C1O (stereo partly specified)	> 10000 µM
OCC1O[C@@H](O/N=C/c2ccccc2F)C(O)[C@@H](O)C1O (stereo partly specified)	> 10000 µM
CC(C)(C)c1ccc(/C=N/O[C@@H]2OC(CO)C(O)[C@H](O)C2O)cc1 (stereo partly specified)	4800 µM
CCC(/C=N/O[C@@H]1OC(CO)C(O)[C@H](O)C1O)CC (stereo partly specified)	7300 µM
O=[N+]([O-])c1ccccc1/C=N/O[C@@H]1OC(CO)C(O)[C@H](O)C1O (stereo partly specified)	9300 µM
CN(C)c1ccc(/C=N/O[C@@H]2OC(CO)C(O)[C@H](O)C2O)cc1 (stereo partly specified)	9000 µM
OCC1O[C@@H](O/N=C/C2CCCCC2)C(O)[C@@H](O)C1O (stereo partly specified)	4800 µM
C/C=N/O[C@@H]1OC(CO)C(O)[C@H](O)C1O (stereo partly specified)	5700 µM
OCC1O[C@@H](O/N=C/c2ccc(O)cc2)C(O)[C@@H](O)C1O (stereo partly specified)	4800 µM
C=NO[C@@H]1OC(CO)C(O)[C@H](O)C1O (stereo partly specified)	8900 µM
OCC1O[C@@H](O/N=C/c2ccc(OCc3ccccc3)cc2)C(O)[C@@H](O)C1O (stereo partly specified)	> 10000 µM
OCC1O[C@@H](O/N=C/CCc2ccccc2)C(O)[C@@H](O)C1O (stereo partly specified)	> 10000 µM
OCC1O[C@@H](O/N=C/C(c2ccccc2)c2ccccc2)C(O)[C@@H](O)C1O (stereo partly specified)	7200 µM
OC[C@H]1O[C@@H](O)[C@H](O)[C@@H](O)[C@H]1O [b-D-GALACTOSE]	4400 µM

Further compounds by falling Kd, results first:

Kd	Compound
4000 µM	O=C[C@H](O)[C@@H](O)[C@@H](O)[C@H](O)CO [GALACTOSE]
3800 µM	OCC1O[C@@H](O/N=C/c2ccccc2OC(F)(F)F)C(O)[C@@H](O)C1O (stereo partly specified)
3500 µM	OCC1O[C@@H](O/N=C/c2ccccc2)C(O)[C@@H](O)C1O (stereo partly specified)
3300 µM	OCC1O[C@@H](O/N=C/c2cccnc2)C(O)[C@@H](O)C1O (stereo partly specified)
3100 µM	OCC1O[C@@H](O/N=C/c2ccc(F)cc2)C(O)[C@@H](O)C1O (stereo partly specified)
2900 µM	OCC1O[C@@H](O/N=C/c2ccccc2-c2ccccc2)C(O)[C@@H](O)C1O (stereo partly specified)
2900 µM	OCC1O[C@@H](O/N=C/c2cccc(-c3ccccc3)c2)C(O)[C@@H](O)C1O (stereo partly specified)
2600 µM	Cc1ccc(O)c(/C=N/O[C@@H]2OC(CO)C(O)[C@H](O)C2O)c1 (stereo partly specified)
2500 µM	OCC1O[C@@H](O/N=C/c2c3ccccc3cc3ccccc23)C(O)[C@@H](O)C1O (stereo partly specified)
2300 µM	OCC1O[C@@H](O/N=C/c2ccc3ccccc3c2)C(O)[C@@H](O)C1O (stereo partly specified)
2200 µM	OCC1O[C@@H](O/N=C/c2cccc(OC(F)(F)F)c2)C(O)[C@@H](O)C1O (stereo partly specified)
2200 µM	CCn1c2ccccc2c2cc(/C=N/O[C@@H]3OC(CO)C(O)[C@H](O)C3O)ccc21 (stereo partly specified)
2200 µM	O=[N+]([O-])c1ccc(/C=N/O[C@@H]2OC(CO)C(O)[C@H](O)C2O)cc1 (stereo partly specified)
1800 µM	OCC1O[C@@H](O/N=C/c2ccccc2O)C(O)[C@@H](O)C1O (stereo partly specified)
1800 µM	O=[N+]([O-])c1ccc(/C=N/O[C@@H]2OC(CO)C(O)[C@H](O)C2O)c([N+](=O)[O-])c1 (stereo partly specified)
1800 µM	OCC1O[C@@H](O/N=C/c2cccc(O)c2)C(O)[C@@H](O)C1O (stereo partly specified)
1700 µM	COc1cccc(/C=N/O[C@@H]2OC(CO)C(O)[C@H](O)C2O)c1O (stereo partly specified)

Kd	Compound
1700 µM	COc1ccc(/C=N/O[C@@H]2OC(CO)C(O)[C@H](O)C2O)c(O)c1 (stereo partly specified)
1650 µM	OCC1O[C@@H](O/N=C/c2cc(Br)ccc2O)C(O)[C@@H](O)C1O (stereo partly specified)
1600 µM	O=[N+]([O-])c1ccc(/C=N/O[C@@H]2OC(CO)C(O)[C@H](O)C2O)o1 (stereo partly specified)
1600 µM	OCC1O[C@@H](O/N=C/c2cccc(F)c2)C(O)[C@@H](O)C1O (stereo partly specified)
1400 µM	OCC1O[C@@H](O/N=C/c2ccc3ccccc3n2)C(O)[C@@H](O)C1O (stereo partly specified)
840 µM	OCC1O[C@@H](O/N=C/c2ccc(O)cc2O)C(O)[C@@H](O)C1O (stereo partly specified)
780 µM	OCC1O[C@@H](O/N=C/c2cc(O)ccc2O)C(O)[C@@H](O)C1O (stereo partly specified)
690 µM	OCC1O[C@@H](O/N=C/c2ccc(Br)cc2)C(O)[C@@H](O)C1O (stereo partly specified)
620 µM	OCC1O[C@@H](O/N=C/c2ccnc3ccccc23)C(O)[C@@H](O)C1O (stereo partly specified)
550 µM	OCC1O[C@@H](O/N=C/c2ccc(O)c(O)c2)C(O)[C@@H](O)C1O (stereo partly specified)
530 µM	O=[N+]([O-])c1cccc(/C=N/O[C@@H]2OC(CO)C(O)[C@H](O)C2O)c1 (stereo partly specified)
370 µM	OCC1O[C@@H](O/N=C/c2cccc3ccccc23)C(O)[C@@H](O)C1O (stereo partly specified)
360 µM	O=[N+]([O-])c1ccc(O)c(/C=N/O[C@@H]2OC(CO)C(O)[C@H](O)C2O)c1 (stereo partly specified)
330 µM	OCC1O[C@@H](O/N=C/c2c[nH]c3ccccc23)C(O)[C@@H](O)C1O (stereo partly specified)
220 µM	OC[C@H]1O[C@@H](O/N=C/c2c[nH]c3ccccc23)[C@H](O)[C@@H](O)[C@H]1O
220 µM	LACTOSE, ANHYDROUS
